≈ marks a conversion by molar mass, not a printed value. Read-outs that look alike come from different tables or passages of the source. One block for each molecule: values may come before it.
Assays:
Assay type in all cases: cell-based
HIV-1 strain NL4.3 = assay: Anti-HIV-1 assay in MT-4 cells (p24 Ag ELISA, Example 3)
Method in brief: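 MT-4 cells infected with HIV-1 NL4.3 in presence of five-fold compound dilutions, incubated 3–5 days until strong viral CPE in untreated infected cells. Supernatant p24 core antigen measured by ELISA; IC50 is concentration giving 50% reduction in p24.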

HHV-7 (KHR strain) = assay: Anti-HHV-7 assay in SupT1 cells (antigen expression, flow cytometry, Example 3); settings: SUP-T1; SupT1 cells; read-out: IC50 HHV-7 (50% reduction of HHV-7 antigen expression)
Method in brief: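 SupT1 cells pre-incubated 30 min at room temperature with five-fold compound dilutions, then infected with HHV-7. Every 2–3 days from day 4, half the medium and cells were replaced with compound-free medium. Once microscopic CPE appeared, HHV-7 antigen expression was measured by flow cytometry.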

CD4 [1] = molecular target: T1, CD4 (Homo sapiens, UniProt P01730); assay: CD4 down-modulation, flow cytometry with FITC-conjugated anti-CD4 (SK3) mAb, SupT1 cells; parameters: To study the effect of the CADA derivatives on surface CD4 antigen expression, MT-4 and SupT1 cells were incubated; endogenous in cells; host or cells: MT-4, SupT1, PBMC; settings: for IC50: day 4, read-out: IC50 CD4 (50% inhibition of extracellular CD4 expression) (converted)
Method in brief: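 MT-4 and SupT1 cells were exposed at 37 °C to 5-fold compound dilutions (50–0.08 μg/ml). On day 3 (MT-4) or day 4 (SupT1) they were stained with FITC anti-CD4 (SK3) for 30 min at 4 °C and analysed by flow cytometry. IC50 was derived from MFI as % of untreated control, after isotype subtraction.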

CD4 [2] = molecular target: T1, CD4; assay: Cell surface CD4 expression by flow cytometry (anti-CD4 mAb Leu3a-PE); parameters: To study the effect of the CADA derivatives on surface CD4 antigen expression, MT-4 and SupT1 cells were incubated; endogenous in cells; host or cells: MT-4, SupT1, PBMC; settings: for CD4 cell surface antigen expression: percentage of positive cells, unit not given; for surface CD4 antigen expression: CADA 3.2 μM; for percentage of cell surface CD4 expression: ATA 24 μM, PMA 8 nM (FIG. 4)
Method in brief: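 MT-4, SupT1 cells and PBMCs were exposed at 37° C to CADA hydrochloride (3.2 or 16 μM) for 20 min to 4 days, with ATA (24 μM) and PMA (8 nM) as comparators in SupT1. Cells were stained with PE-anti-CD4 (Leu3a) for 20 min at 4° C and fixed in 1% formaldehyde. Read-out was flow cytometry as % positive cells and MFI.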

[3] = Human immunodeficiency virus 1, MT4, 96 h, MT-4 cells, 0.4 μg/ml, 4 days (FIG. 5), read-out: inhibition of NL4.3 virus production (p24)
[4] = Human immunodeficiency virus 1, MT4, MT-4 cells, read-out: IC50 HIV-1 (NL4.3), p24 Ag ELISA

SMILES: C=C1CN(S(=O)(=O)c2ccc(C)cc2)CCCN(Cc2ccccc2)CCCN(S(=O)(=O)c2ccc(C)cc2)C1 [CADA]
inhibition at 0.4 µg/mL (HIV-1 strain NL4.3; [3]): 25%
IC50 (HIV-1 strain NL4.3; [4]): 0.72 µg/mL (≈ 1.24 µM)
IC50 (HIV-1 strain NL4.3; Human immunodeficiency virus 1, MT4 cells, Table 6, unit inferred, read-out: IC50(HIV-1)): 0.52 µg/mL (≈ 0.894 µM)
inhibition of NL4.3 virus production (p24) (HIV-1 strain NL4.3; MT-4 cells, 0.08 μg/ml, 4 days (FIG. 5)): no anti-HIV-1 activity
inhibition of NL4.3 virus production (p24) (HIV-1 strain NL4.3; MT-4 cells, 2 μg/ml, 4 days (FIG. 5)): significant inhibition
inhibition of NL4.3 virus production (p24) (HIV-1 strain NL4.3; MT-4 cells, 10 μg/ml, 4 days (FIG. 5)): significant inhibition
p24 level (HIV-1 strain NL4.3; MT-4 cells, NL4.3, 0.08 μg/ml, 4 days, infected control cells 325 ng/ml): 392 ng/mL
IC50 (HHV-7 (KHR strain)): 0.35 µg/mL (≈ 0.602 µM)
IC50 (CD4 [1]): 980 nM
CD4 cell surface antigen expression (CD4 [2]; MT-4 T-cells, CADA 16 μM, 4 days): 6.3
surface CD4 antigen expression (CD4 [2]; MT-4 cells, 1 day, control 95.6%): 4.9%
surface CD4 antigen expression (CD4 [2]; MT-4 cells, 4 days, control 95.6%): 6.3%
percentage of CD4 expression (CD4 [2]; PBMCs, CADA 16 μM, 4 days): 0.2%
CD4 cell surface antigen expression (CD4 [2]; PBMCs, CADA 16 μM, 4 days): 0.2
CD4 cell surface antigen expression (CD4 [2]; SupT1 T-cells, CADA 16 μM, 4 days): 1.2
percentage of cell surface CD4 expression (CD4 [2]; SupT1 cells, 20 minutes, CADA 16 μM): still as high as in the untreated cells
percentage of cell surface CD4 expression (CD4 [2]; SupT1 cells, 4 hours, CADA 16 μM): still as high as in the untreated cells
percentage of cell surface CD4 expression (CD4 [2]; SupT1 cells, 1 day, CADA 16 μM): decrease became clearly visible
percentage of cell surface CD4 expression (CD4 [2]; SupT1 cells, 4 days, CADA 16 μM): 1.2%
surface CD4 antigen expression (CD4 [2]; SupT1 cells, 1 day, control 96.4%): 46.4%
surface CD4 antigen expression (CD4 [2]; SupT1 cells, 4 days, control 96.4%): 1.2%
effect of human serum on CD4 down-modulation induced by CADA (CD4 [2]; presence of human serum): did not affect

IC50 (HIV-1 strain NL4.3; [4]): 0.2 µg/mL (≈ 0.34 µM)
IC50 (HHV-7 (KHR strain)): 0.05 µg/mL (≈ 0.0851 µM)
IC50 (CD4 [1]): 425 nM
down-regulation of CD4 expression (in words) (CD4 [2]): down-regulate CD4 expression
SMILES: C=C1CN(S(=O)(=O)c2ccc(C)cc2)CCCN(CC2CCCCC2)CCCN(S(=O)(=O)c2ccc(C)cc2)C1 [QJ028]
inhibition at 0.4 µg/mL (HIV-1 strain NL4.3; [3]): 88%
selectivity index (CC50/IC50) (CD4 [1]): approximately 100

IC50 (HIV-1 strain NL4.3; [4]): 1.22 µg/mL (≈ 2.11 µM)
IC50 (HHV-7 (KHR strain)): 0.73 µg/mL (≈ 1.26 µM)
IC50 (CD4 [1]): 3270 nM
down-regulation of CD4 expression (in words) (CD4 [2]): down-regulate CD4 expression
SMILES: C=C1CN(S(=O)(=O)c2ccc(C)cc2)CCCN(C(=O)OCCC)CCCN(S(=O)(=O)c2ccc(C)cc2)C1 [QJ033]
inhibition at 2 µg/mL (HIV-1 strain NL4.3; Human immunodeficiency virus 1, MT4, 96 h, MT-4 cells, 2 μg/ml, 4 days (FIG. 5), read-out: inhibition of NL4.3 virus production (p24)): 56%
inhibition of NL4.3 virus production (p24) (HIV-1 strain NL4.3; MT-4 cells, 0.4 μg/ml, 4 days (FIG. 5)): no antiviral activity

Reference: patent US20040220164A1, “Triaza compound immunoregulatory agents” (priority 2001, published 2004)
